According to ChEMBL document CHEMBL1201862, “PubChem BioAssay data set” (2004):
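Compound exposure: 48 hours, 5 concentrations, 96-well plates. GI50 is the concentration that inhibits growth by half.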 Calls of active or inactive are those of the source. Rule as the data show it: active = GI50 up to about 1.1 µM and inactive = higher.

What was measured:
Test in all cases: NCI-60 cell line screen, 48 h
[1] = system: A498
[2] = system: CCRF-CEM
[3] = system: HOP-92
[4] = system: IGROV-1
[5] = system: K562
[6] = system: LOX IMVI
[7] = system: NCI-H23
[8] = system: SF-268
[9] = system: SF-295
[10] = system: SF-539
[11] = system: SK-MEL-2
[12] = system: SK-MEL-5
[13] = system: SNB-19
[14] = system: SNB-75
[15] = system: SW-620
[16] = system: U-251
[17] = system: UACC-62
[18] = system: CAKI-1

| SMILES | GI50 [1] | GI50 [2] | GI50 [3] | GI50 [4] | GI50 [5] | GI50 [6] | GI50 [7] | GI50 [8] | GI50 [9] | GI50 [10] | GI50 [11] | GI50 [12] | GI50 [13] | GI50 [14] | GI50 [15] | GI50 [16] | GI50 [17] | GI50 [18] |
| --- | --- | --- | --- | --- | --- | --- | --- | --- | --- | --- | --- | --- | --- | --- | --- | --- | --- | --- |
| O=C(O/N=C1/CCCC/C1=C\c1ccccc1)c1ccccc1 | 0.178 µM (active) | 36.8 µM (inactive) | 63.5 µM (inactive) | 0.108 µM (active) | 20.8 µM (inactive) | 33 µM (inactive) | > 100 µM (inactive) | 33.3 µM (inactive) | 70.3 µM (inactive) | > 100 µM (inactive) | > 100 µM (inactive) | 0.146 µM (active) | > 100 µM (inactive) | > 100 µM (inactive) | > 100 µM (inactive) | 92.7 µM (inactive) | > 100 µM (inactive) | – |
| O=C1CC2CCN(C(=O)c3ccccc3)CC2CCN1.O=C1CCC2CC(C(=O)c3ccccc3)CCC2CN1 (stereo not drawn) | – | > 100 µM (inactive) | – | > 100 µM (inactive) | > 100 µM (inactive) | – | > 100 µM (inactive) | > 100 µM (inactive) | > 100 µM (inactive) | > 100 µM (inactive) | > 100 µM (inactive) | 42.6 µM (inactive) | > 100 µM (inactive) | > 100 µM (inactive) | > 100 µM (inactive) | > 100 µM (inactive) | 52.1 µM (inactive) | > 100 µM (inactive) |
| C=CCc1cc(OC)c(O)c(C(=O)/C=C/c2ccc(OC)c(OC)c2)c1 | 17.9 µM (inactive) | 9.98 µM (inactive) | – | 44.6 µM (inactive) | 10.7 µM (inactive) | 16.3 µM (inactive) | 15 µM (inactive) | 24.4 µM (inactive) | 16.1 µM (inactive) | 19.1 µM (inactive) | 13.3 µM (inactive) | 15.3 µM (inactive) | 15.6 µM (inactive) | 22.5 µM (inactive) | 24.4 µM (inactive) | 17.4 µM (inactive) | 23.8 µM (inactive) | 22.1 µM (inactive) |
| CN1CC(C(=O)C2C(=O)c3ccccc3C2=O)C(=O)C(=O)C(C(=O)C2C(=O)c3ccccc3C2=O)C1 (stereo not drawn) | > 100 µM (inactive) | > 100 µM (inactive) | 85.1 µM (inactive) | > 100 µM (inactive) | > 100 µM (inactive) | > 100 µM (inactive) | > 100 µM (inactive) | > 100 µM (inactive) | > 100 µM (inactive) | > 100 µM (inactive) | > 100 µM (inactive) | – | > 100 µM (inactive) | 32.9 µM (inactive) | > 100 µM (inactive) | > 100 µM (inactive) | > 100 µM (inactive) | > 100 µM (inactive) |
| N#Cc1nc(Nc2ccc(Cl)cc2)sc1N | 10.9 µM (inactive) | 2.94 µM (inactive) | 20.9 µM (inactive) | 19.5 µM (inactive) | 3.91 µM (inactive) | 3.47 µM (inactive) | 3.19 µM (inactive) | 5.47 µM (inactive) | 16.9 µM (inactive) | 2.78 µM (inactive) | 15.1 µM (inactive) | 2.61 µM (inactive) | 22.1 µM (inactive) | 28.8 µM (inactive) | 6.1 µM (inactive) | 10.2 µM (inactive) | 10.1 µM (inactive) | 7.57 µM (inactive) |
| CCOC(=O)c1s/c(=N\Nc2nc3ccccc3cc2C2OCCO2)n(Cc2ccccc2)c1C | > 100 µM (inactive) | > 100 µM (inactive) | > 100 µM (inactive) | > 100 µM (inactive) | > 100 µM (inactive) | > 100 µM (inactive) | > 100 µM (inactive) | > 100 µM (inactive) | > 100 µM (inactive) | > 100 µM (inactive) | > 100 µM (inactive) | > 100 µM (inactive) | > 100 µM (inactive) | > 100 µM (inactive) | > 100 µM (inactive) | > 100 µM (inactive) | > 100 µM (inactive) | > 100 µM (inactive) |
| O=C1NC(=O)C(C(=O)C(=O)Nc2cccc(C(F)(F)F)c2)C(=O)N1 | > 100 µM (inactive) | > 100 µM (inactive) | – | > 100 µM (inactive) | > 100 µM (inactive) | > 100 µM (inactive) | > 100 µM (inactive) | > 100 µM (inactive) | – | > 100 µM (inactive) | > 100 µM (inactive) | > 100 µM (inactive) | > 100 µM (inactive) | 52.8 µM (inactive) | > 100 µM (inactive) | > 100 µM (inactive) | > 100 µM (inactive) | > 100 µM (inactive) |
| N#Cc1ccccc1NC(=O)c1ccccc1 | > 100 µM (inactive) | – | > 100 µM (inactive) | > 100 µM (inactive) | > 100 µM (inactive) | > 100 µM (inactive) | > 100 µM (inactive) | > 100 µM (inactive) | > 100 µM (inactive) | > 100 µM (inactive) | > 100 µM (inactive) | > 100 µM (inactive) | > 100 µM (inactive) | 68.5 µM (inactive) | > 100 µM (inactive) | > 100 µM (inactive) | > 100 µM (inactive) | > 100 µM (inactive) |
| COC(=O)[C@@H]1CSC(=S)N1C(=O)C[C@H]1CC=CC[C@H]1CC(=O)Sc1ccccc1 | – | 3.04 µM (inactive) | – | 19.8 µM (inactive) | 12.1 µM (inactive) | 17.7 µM (inactive) | 21 µM (inactive) | 15.1 µM (inactive) | 22 µM (inactive) | 17.8 µM (inactive) | 22.2 µM (inactive) | – | 18.2 µM (inactive) | 15.4 µM (inactive) | 17.4 µM (inactive) | 15.5 µM (inactive) | 19.3 µM (inactive) | > 10 µM (inactive) |
| CC1COS(=O)N1c1ccccc1 (stereo not drawn) | > 100 µM (inactive) | > 100 µM (inactive) | > 100 µM (inactive) | > 100 µM (inactive) | > 100 µM (inactive) | > 100 µM (inactive) | > 100 µM (inactive) | > 100 µM (inactive) | > 100 µM (inactive) | – | > 100 µM (inactive) | > 100 µM (inactive) | – | > 100 µM (inactive) | > 100 µM (inactive) | > 100 µM (inactive) | > 100 µM (inactive) | – |
| Nc1nc(SCCC/C=C/B(O)O)nc2c1ncn2C1OC(COP(=O)(O)O)C(O)C1O (stereo not drawn) | > 203 µM (inactive) | > 203 µM (inactive) | > 203 µM (inactive) | > 203 µM (inactive) | > 203 µM (inactive) | > 203 µM (inactive) | > 203 µM (inactive) | > 203 µM (inactive) | > 203 µM (inactive) | > 203 µM (inactive) | > 203 µM (inactive) | > 203 µM (inactive) | > 203 µM (inactive) | > 203 µM (inactive) | > 203 µM (inactive) | > 203 µM (inactive) | > 203 µM (inactive) | > 203 µM (inactive) |
| Cc1nn(-c2ccccc2)c2nc(N3CCOCC3)nnc12 | 66.1 µM (inactive) | > 100 µM (inactive) | – | > 100 µM (inactive) | > 100 µM (inactive) | > 100 µM (inactive) | 79.6 µM (inactive) | > 100 µM (inactive) | > 100 µM (inactive) | 24.4 µM (inactive) | 51.3 µM (inactive) | 49.2 µM (inactive) | > 100 µM (inactive) | 40.3 µM (inactive) | > 100 µM (inactive) | 52.8 µM (inactive) | 69.2 µM (inactive) | 39.6 µM (inactive) |
| CC(=O)OCC(OC(C)=O)C(OC(C)=O)C(OC(C)=O)C(=O)CNn1c(-c2ccc(C)cc2)nc2ccccc2c1=O (stereo not drawn) | > 100 µM (inactive) | > 100 µM (inactive) | – | – | > 100 µM (inactive) | > 100 µM (inactive) | > 100 µM (inactive) | > 100 µM (inactive) | > 100 µM (inactive) | > 100 µM (inactive) | > 100 µM (inactive) | > 100 µM (inactive) | > 100 µM (inactive) | 53.1 µM (inactive) | > 100 µM (inactive) | > 100 µM (inactive) | 60.5 µM (inactive) | 90.2 µM (inactive) |
| CCCCCNC(=O)C1C(=O)N(CCCCC)C(=O)/C1=N\N (stereo not drawn) | > 100 µM (inactive) | 49.2 µM (inactive) | 37.8 µM (inactive) | 53 µM (inactive) | 34.4 µM (inactive) | – | 47.5 µM (inactive) | 63.8 µM (inactive) | 30.5 µM (inactive) | 59.4 µM (inactive) | 35.2 µM (inactive) | 29 µM (inactive) | 35.2 µM (inactive) | – | 79.3 µM (inactive) | 30.1 µM (inactive) | 43.5 µM (inactive) | – |
| CCCCCCCCCCCCCCCC(=O)NC1CCc2cc(O)c(O)c(O)c2-c2ccc(SC)c(=O)cc21 (stereo not drawn) | 19.3 µM (inactive) | 3.93 µM (inactive) | 2.51 µM (inactive) | 8.39 µM (inactive) | 1.89 µM (inactive) | 12 µM (inactive) | 1.37 µM (inactive) | 5.28 µM (inactive) | 3.7 µM (inactive) | 2.07 µM (inactive) | – | 4.42 µM (inactive) | 9.29 µM (inactive) | 2.62 µM (inactive) | 4.84 µM (inactive) | 1.29 µM (inactive) | 2.9 µM (inactive) | 13 µM (inactive) |
| O=C(CCc1ccc(O)cc1)c1c(O)cc(O)cc1OC1OC(CO)C(O)C(O)C1O (stereo not drawn) | > 100 µM (inactive) | – | > 100 µM (inactive) | > 100 µM (inactive) | > 100 µM (inactive) | > 100 µM (inactive) | > 100 µM (inactive) | > 100 µM (inactive) | > 100 µM (inactive) | > 100 µM (inactive) | > 100 µM (inactive) | > 100 µM (inactive) | – | > 100 µM (inactive) | > 100 µM (inactive) | – | > 100 µM (inactive) | > 100 µM (inactive) |
